Where a name gives a salt, the structure may show the parent alone.
Assays:
[1] = Prospective, multinational, double-blind, randomized, placebo-controlled, parallel group trial: prevention of permanent atrial fibrillation/flutter; type: in vivo; conditions: of 2301 patients treated; 400 mg of base twice daily with meals, 12 to 30 months; placebo 294; Fischer's exact test p<0.001
Text: The invention is illustrated with the data below. Efficacy of dronedarone and its pharmaceutically acceptable salts versus placebo for the prevention of permanent atrial fibrillation was provided via dronedarone hydrochloride during a prospective, multinational, double-blind, randomized, multi-center, placebo-controlled, parallel group trial.
Patients must have a history of atrial fibrillation or atrial flutter and/or may be in normal sinus rhythm or in atrial fibrillation or flutter at the time of recruitment. Recruitment of patients was conducted taking into account the following inclusion criteria:
1) One of the following risk factors had to be present: • age equal to or greater than 70 years, • hypertension (taking antihypertensives of at least two different classes), • diabetes, • history of cerebral stroke (transient ischemic event or completed cerebral stroke) or of systemic embolism, • left atrial diameter greater than or equal to 50 mm measured by echocardiography, • left ventricular ejection fraction less than 40%, measured by two-dimensional echography; […]

[2] = Same trial: prevention of cardiovascular hospitalization or death in patients with permanent atrial fibrillation; type: in vivo
Method: The invention is illustrated with the data below. Efficacy of dronedarone and its pharmaceutically acceptable salts versus placebo for the prevention of permanent atrial fibrillation was provided via dronedarone hydrochloride during a prospective, multinational, double-blind, randomized, multi-center, placebo-controlled, parallel group trial. Study drug treatment units (placebo or dronedarone hydrochloride corresponding to 400 mg of base) were such that each patient took one tablet in the morning during or shortly after breakfast and one tablet in the evening during or shortly after dinner. The treatment duration depended on the time of recruitment of each patient in the trial and could be comprised from 12 months to 30 months. From the 4628 patients included in the trial, 2301 were part of the group treated with dronedarone hydrochloride. “Patients with permanent atrial fibrillation or flutter” means patients with a history of atrial fibrillation or atrial flutter, who were in atrial fibrillation or flutter at the time of recruitment but who had not a previous history of permanent atrial fibrillation or flutter and who stayed in permanent atrial fibrillation or flutter during all the trial. The results obtained during this trial were analyzed by the Kaplan Meier method for the figures and the relative risk (RR) was estimated using Cox's proportional effect regression model. The relative risk (RR) is the ratio of the rates of occurrence of a hospitalization or death in patients receiving dronedarone compared with patients receiving a placebo. The percentage reduction x of a given event (hospitalization, death, cardiovascular death and the like) is calculated in the following manner: x=1−relative risk. Of the 4628 patients included in the study, 2301 formed part of the group treated with dronedarone hydrochloride. […] 74 events were recorded in the placebo group against 29 in the group treated with dronedarone hydrochloride. The calculated relative risk is 0.67 with p=0.06, that is a 33% reduction in cardiovascular hospitalizations and deaths under dronedarone hydrochloride.

## CCCCc1oc2ccc(NS(C)(=O)=O)cc2c1C(=O)c1ccc(OCCCN(CCCC)CCCC)cc1 [dronedarone hydrochloride, 2-n-butyl-3-[4-(3-di-n-butylaminopropoxy)benzoyl]-5-methylsulfonamido-benzofuran]
[1]
  number of patients with permanent atrial fibrillation/flutter: 178 patients
[2]; 178 patients in permanent AF in treated group, placebo 74 events of 294 patients
  events (cardiovascular hospitalization or death) recorded in patients in permanent atrial fibrillation: 29 events
[2]; patients in permanent atrial fibrillation, Cox's proportional effect regression model, p=0.06
  relative risk (RR) of cardiovascular hospitalization or death versus placebo: 0.67
[2]; patients in permanent atrial fibrillation, versus placebo, p=0.06
  reduction in cardiovascular hospitalizations and deaths (x=1-relative risk): 33%
